Assay results published in ChEMBL document CHEMBL1201862, “PubChem BioAssay data set” (2004).
Activity calls are given as the source filed them.

Columns and labels:
[1] = target: T1, Nuclear receptor subfamily 0 group B member 1 (Homo sapiens, UniProt P51843); assay type: functional, cell-based;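 note: HEK293T cells transfected with SF-1 and DAX-1 plus StAR promoter luciferase reporter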
T1 sequence (P51843 whole entry): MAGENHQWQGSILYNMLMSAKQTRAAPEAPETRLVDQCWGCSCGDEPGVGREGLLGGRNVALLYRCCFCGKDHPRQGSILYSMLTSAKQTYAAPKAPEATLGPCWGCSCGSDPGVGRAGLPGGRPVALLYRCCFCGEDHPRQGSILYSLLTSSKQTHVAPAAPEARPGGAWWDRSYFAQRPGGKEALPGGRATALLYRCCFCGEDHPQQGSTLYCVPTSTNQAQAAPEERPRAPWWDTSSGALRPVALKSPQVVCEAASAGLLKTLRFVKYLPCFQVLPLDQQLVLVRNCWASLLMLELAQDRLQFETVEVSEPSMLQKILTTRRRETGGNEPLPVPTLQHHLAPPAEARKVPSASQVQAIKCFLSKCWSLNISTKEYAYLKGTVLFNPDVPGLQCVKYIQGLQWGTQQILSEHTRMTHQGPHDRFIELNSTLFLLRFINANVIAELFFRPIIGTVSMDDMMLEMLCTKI

[2] = Luminescence-based dose response cell-based high throughput screening assay for cytotoxic compounds using the IEC-6 intestinal epithelial cell line. [Related pubchem assays: 1858 (Summary AID.), 1825 (Counterscreen.), 1907 (Confirmation screen.)]; assay type: functional
Cytochrome P450 2D6 = Cytochrome P450 2D6 (Homo sapiens, UniProt P10635);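 note: CYP2D6 member of a cytochrome P450 panel assay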
Paired box protein Pax-8 = Paired box protein Pax-8 (Homo sapiens, UniProt Q06710); test: inhibitors of PAX8-driven TPO luciferase reporter, dose response, RMG-I cells, cherry-pick (AID 687027); assay type: functional, cell-based;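 note: luciferase reporter driven by Pax8 target thyroperoxidase promoter measured by SteadyGlo luminescence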
P388/ADR = test: cells; assay type: functional; conditions: Mus musculus
P388 = test: cells; assay type: functional; conditions: Mus musculus
[3] = HeLa 2N DNA content increase, dose response, cell-based, IC50 (AID 1117349); assay type: functional
cells [4] = assay type: functional, cell-based
Cytochrome P450 2C9 = Cytochrome P450 2C9 (Homo sapiens, UniProt P11712)
[5] = cytotoxicity in HEK-293T cells, dose response, cytotoxicity control for TCR NF-kB inhibitor project, luminescence, T-cell screen hits (AID 489026); assay type: functional, cell-based;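 note: cells exposed to compound about 14 hours before the viability readout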
SN12K1 = test: cells; assay type: functional; conditions: Homo sapiens
Beta-lactamase [6] = target: T2, Beta-lactamase (Salmonella choleraesuis (strain SC-B67), UniProt Q5J463); test: Epi-absorbance-based counterscreen for selective VIM-2 inhibitors: dose response biochemical high throughput screening assay to identify inhibitors of TEM-1 serine-beta-lactamase.
Beta-lactamase [7] = target: T3, Beta-lactamase (Pseudomonas aeruginosa, UniProt Q79MP6); test: IMP-1 metallo-beta-lactamase inhibitors, dose response, selectivity assay for VIM-2 inhibitor project, biochemical, epi-absorbance (AID 1920)
Beta-lactamase [8] = target: T3, Beta-lactamase; test: […] counterscreen for selective VIM-2 inhibitors: dose response biochemical high throughput screening assay to identify inhibitors of IMP-1 metallo-beta-lactamase.
[9] = target: T4, Carboxy-terminal domain RNA polymerase II polypeptide A small phosphatase 1 (Homo sapiens, UniProt Q9GZU7); test: inhibitors of CTDSP1, concentration-response testing, biochemical assay, absorbance-based, actives from ultra-high-throughput screening (AID 540297); assay type: functional
T4 sequence (Q9GZU7 whole entry): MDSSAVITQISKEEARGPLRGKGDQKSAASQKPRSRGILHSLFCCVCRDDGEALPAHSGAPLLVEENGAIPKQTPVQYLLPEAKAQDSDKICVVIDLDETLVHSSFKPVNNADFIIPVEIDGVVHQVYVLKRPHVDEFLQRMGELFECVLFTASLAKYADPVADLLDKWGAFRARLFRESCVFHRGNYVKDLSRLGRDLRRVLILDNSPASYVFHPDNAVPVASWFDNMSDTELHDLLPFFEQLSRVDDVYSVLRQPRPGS

[10] = target: Tyrosine-protein phosphatase non-receptor type 11 (Homo sapiens, UniProt Q06124); test: SHP2 phosphatase inhibition, dose response, selectivity assay for STEP inhibitor project, biochemical (AID 602367); assay type: functional; conditions: read-out: IC50_Mean
[11] = target: Tyrosine-protein phosphatase non-receptor type 5 (Homo sapiens, UniProt P54829); test: STEP phosphatase inhibitors, confirmation, biochemical, fluorescence intensity, uHTS hits (AID 602372); assay type: functional; conditions: read-out: IC50_Mean
[12] = target: T5, Tyrosine-protein phosphatase non-receptor type 22 (Homo sapiens, UniProt Q9Y2R2); test: PTPN22 phosphatase inhibition, dose response, selectivity assay for STEP inhibitor project, biochemical (AID 624241); assay type: functional
T5 sequence (Q9Y2R2 whole entry): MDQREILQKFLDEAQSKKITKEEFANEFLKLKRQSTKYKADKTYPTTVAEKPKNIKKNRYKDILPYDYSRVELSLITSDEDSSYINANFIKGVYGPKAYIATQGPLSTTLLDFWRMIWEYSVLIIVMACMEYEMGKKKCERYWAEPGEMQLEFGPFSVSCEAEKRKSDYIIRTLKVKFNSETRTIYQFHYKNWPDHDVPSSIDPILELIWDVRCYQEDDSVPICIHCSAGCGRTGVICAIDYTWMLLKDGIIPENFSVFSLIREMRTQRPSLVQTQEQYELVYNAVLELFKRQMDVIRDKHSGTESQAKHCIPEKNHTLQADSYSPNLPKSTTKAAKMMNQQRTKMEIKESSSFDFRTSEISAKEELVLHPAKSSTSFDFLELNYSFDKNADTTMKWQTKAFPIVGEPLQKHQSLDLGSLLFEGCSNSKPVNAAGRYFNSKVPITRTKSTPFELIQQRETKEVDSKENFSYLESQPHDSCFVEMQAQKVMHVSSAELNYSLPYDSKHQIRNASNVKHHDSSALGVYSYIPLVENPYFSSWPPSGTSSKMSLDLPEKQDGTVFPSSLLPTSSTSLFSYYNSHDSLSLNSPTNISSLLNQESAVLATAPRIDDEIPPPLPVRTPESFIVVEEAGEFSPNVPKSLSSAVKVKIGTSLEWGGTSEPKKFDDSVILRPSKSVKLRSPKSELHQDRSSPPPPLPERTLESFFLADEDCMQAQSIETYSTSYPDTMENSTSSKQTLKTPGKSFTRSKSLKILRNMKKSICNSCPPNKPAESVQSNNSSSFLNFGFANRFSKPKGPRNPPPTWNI

[13] = target: Dual specificity protein phosphatase 3 (Homo sapiens, UniProt P51452); test: VHR phosphatase inhibition, dose response, selectivity assay for STEP inhibitor project, biochemical (AID 602374); assay type: functional; conditions: read-out: IC50_Mean
Beta-galactosidase = Beta-galactosidase (Escherichia coli, UniProt Q8VNN2); test: Dose response counterscreen for EBI2 assay utilizing the enzyme, b-galactosidase.; assay type: functional
Beta-lactamase [14] = target: T2, Beta-lactamase
Beta-lactamase [15] = target: T3, Beta-lactamase
[16] = target: T6, Matrix metalloproteinase-14 (Homo sapiens, UniProt P50281); test: SAR confirmation of uHTS hits for a small molecule inhibitors of MT1-MMP activation in a fluorescence assay.; assay type: functional
[17] = target: T6, Matrix metalloproteinase-14; test: Dose Response confirmation of uHTS hits for a small molecule inhibitors of MT1-MMP activation in a fluorescence assay set 1.; assay type: functional
[18] = target: T7, Voltage-gated N-type calcium channel alpha-1B subunit/Amyloid beta A4 precursor protein-binding family A member 1 (Homo sapiens, UniProt Q00975+Q02410); assay type: protein assay
Ephrin type-A receptor 4 = Ephrin type-A receptor 4 (Mus musculus, UniProt Q03137); test: inhibitors of EphA4 binding to KYL peptide, primary screen, biochemical, colorimetric, mouse EphA4 (AID 689); assay type: functional
[19] = target: Induced myeloid leukemia cell differentiation protein Mcl-1 (Homo sapiens, UniProt Q07820); assay type: functional
[20] = target: T7, Voltage-gated N-type calcium channel alpha-1B subunit/Amyloid beta A4 precursor protein-binding family A member 1; assay type: protein assay; remark: listed apart in the source
[21] = target: Beta-2 adrenergic receptor (Homo sapiens, UniProt P07550); test: Dose response for HTS for Beta-2AR agonists via FAP method from Powderset3.; assay type: functional
cells [22] = assay type: functional, cell-based; remark: listed apart in the source
cells [23] = assay type: functional, cell-based; remark: listed apart in the source
[24] = target: T8, Trace amine-associated receptor 1 (Homo sapiens, UniProt Q96RJ0); test: Fluorescence-based cell-based high throughput dose response assay to identify agonists of the human trace amine associated receptor 1 (TAAR1).; assay type: functional
[25] = target: T8, Trace amine-associated receptor 1; test: Counterscreen for agonists of the human trace amine associated receptor 1 (hTAAR1): Fluorescence-based cell-based high throughput dose response assay to identify hTAAR1 agonist that also desensitize TAAR1 receptor response.; assay type: functional
[26] = target: 72 kDa type IV collagenase (Homo sapiens, UniProt P08253); test: Dose Response validation of uHTS RPN11 inhibitor hits using a MMP-2 Fluorescence assay.; assay type: functional
[27] = target: T9, Small ubiquitin-related modifier 1 (Homo sapiens, UniProt P63165); test: inhibitors of SUMO1 peptide binding, dose response, biochemical, fluorescence polarization, uHTS hits (AID 624382); assay type: functional; conditions: read-out: IC50_Mean
[28] = target: 26S proteasome non-ATPase regulatory subunit 14 (Homo sapiens, UniProt O00487); test: inhibition of proteasome subunit RPN11 – biochemical, fluorescence polarization, uHTS hits, confirmation (AID 602368); assay type: functional
Prothrombin = Prothrombin (Bos taurus, UniProt P00735); test: thrombin inhibition, dose response, biochemical, fluorescence polarization, uHTS hits (AID 602369); assay type: functional
[29] = target: E3 ubiquitin-protein ligase XIAP (Homo sapiens, UniProt P98170); test: Counter Screen using XIAP-Bir3 for Chemical Antagonists of Bir1/2 domains of IAP-family anti-apoptotic proteins. [Related pubchem assays (depositor defined):AID1018, AID1449, AID1514, AID1638, AID1749, AID1750, AID488957, AID488963]
[30] = target: T9, Small ubiquitin-related modifier 1; test: inhibitors of SUMO1 partner interactions, dose response, biochemical, FRET (AID 624383); assay type: functional; conditions: read-out: IC50_Mean
Albumin = Albumin (Bos taurus, UniProt P02769); test: Counterscreen for inhibitors of T-cell receptor (TCR)-CD3 interaction: Fluorescence-based biochemical high throughput dose response assay to identify inhibitors of T-cell receptor (TCR)-CD3 interaction using a TAMRA-labeled BSA probe.; assay type: functional
[31] = target: RNA-editing ligase 1, mitochondrial (Trypanosoma brucei brucei, UniProt P86926); test: TbREL1 ligase inhibitors, dose response, biochemical, fluorescence, Trypanosoma brucei (AID 1117295); assay type: functional

T3 sequence (Q79MP6 whole entry): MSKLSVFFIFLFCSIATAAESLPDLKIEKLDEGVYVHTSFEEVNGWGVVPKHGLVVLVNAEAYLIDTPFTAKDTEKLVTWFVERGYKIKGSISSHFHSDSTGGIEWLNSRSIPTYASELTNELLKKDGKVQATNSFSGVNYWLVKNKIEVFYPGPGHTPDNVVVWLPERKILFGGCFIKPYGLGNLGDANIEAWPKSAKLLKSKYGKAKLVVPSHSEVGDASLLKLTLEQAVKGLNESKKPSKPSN
T7 sequence (Q00975 whole entry): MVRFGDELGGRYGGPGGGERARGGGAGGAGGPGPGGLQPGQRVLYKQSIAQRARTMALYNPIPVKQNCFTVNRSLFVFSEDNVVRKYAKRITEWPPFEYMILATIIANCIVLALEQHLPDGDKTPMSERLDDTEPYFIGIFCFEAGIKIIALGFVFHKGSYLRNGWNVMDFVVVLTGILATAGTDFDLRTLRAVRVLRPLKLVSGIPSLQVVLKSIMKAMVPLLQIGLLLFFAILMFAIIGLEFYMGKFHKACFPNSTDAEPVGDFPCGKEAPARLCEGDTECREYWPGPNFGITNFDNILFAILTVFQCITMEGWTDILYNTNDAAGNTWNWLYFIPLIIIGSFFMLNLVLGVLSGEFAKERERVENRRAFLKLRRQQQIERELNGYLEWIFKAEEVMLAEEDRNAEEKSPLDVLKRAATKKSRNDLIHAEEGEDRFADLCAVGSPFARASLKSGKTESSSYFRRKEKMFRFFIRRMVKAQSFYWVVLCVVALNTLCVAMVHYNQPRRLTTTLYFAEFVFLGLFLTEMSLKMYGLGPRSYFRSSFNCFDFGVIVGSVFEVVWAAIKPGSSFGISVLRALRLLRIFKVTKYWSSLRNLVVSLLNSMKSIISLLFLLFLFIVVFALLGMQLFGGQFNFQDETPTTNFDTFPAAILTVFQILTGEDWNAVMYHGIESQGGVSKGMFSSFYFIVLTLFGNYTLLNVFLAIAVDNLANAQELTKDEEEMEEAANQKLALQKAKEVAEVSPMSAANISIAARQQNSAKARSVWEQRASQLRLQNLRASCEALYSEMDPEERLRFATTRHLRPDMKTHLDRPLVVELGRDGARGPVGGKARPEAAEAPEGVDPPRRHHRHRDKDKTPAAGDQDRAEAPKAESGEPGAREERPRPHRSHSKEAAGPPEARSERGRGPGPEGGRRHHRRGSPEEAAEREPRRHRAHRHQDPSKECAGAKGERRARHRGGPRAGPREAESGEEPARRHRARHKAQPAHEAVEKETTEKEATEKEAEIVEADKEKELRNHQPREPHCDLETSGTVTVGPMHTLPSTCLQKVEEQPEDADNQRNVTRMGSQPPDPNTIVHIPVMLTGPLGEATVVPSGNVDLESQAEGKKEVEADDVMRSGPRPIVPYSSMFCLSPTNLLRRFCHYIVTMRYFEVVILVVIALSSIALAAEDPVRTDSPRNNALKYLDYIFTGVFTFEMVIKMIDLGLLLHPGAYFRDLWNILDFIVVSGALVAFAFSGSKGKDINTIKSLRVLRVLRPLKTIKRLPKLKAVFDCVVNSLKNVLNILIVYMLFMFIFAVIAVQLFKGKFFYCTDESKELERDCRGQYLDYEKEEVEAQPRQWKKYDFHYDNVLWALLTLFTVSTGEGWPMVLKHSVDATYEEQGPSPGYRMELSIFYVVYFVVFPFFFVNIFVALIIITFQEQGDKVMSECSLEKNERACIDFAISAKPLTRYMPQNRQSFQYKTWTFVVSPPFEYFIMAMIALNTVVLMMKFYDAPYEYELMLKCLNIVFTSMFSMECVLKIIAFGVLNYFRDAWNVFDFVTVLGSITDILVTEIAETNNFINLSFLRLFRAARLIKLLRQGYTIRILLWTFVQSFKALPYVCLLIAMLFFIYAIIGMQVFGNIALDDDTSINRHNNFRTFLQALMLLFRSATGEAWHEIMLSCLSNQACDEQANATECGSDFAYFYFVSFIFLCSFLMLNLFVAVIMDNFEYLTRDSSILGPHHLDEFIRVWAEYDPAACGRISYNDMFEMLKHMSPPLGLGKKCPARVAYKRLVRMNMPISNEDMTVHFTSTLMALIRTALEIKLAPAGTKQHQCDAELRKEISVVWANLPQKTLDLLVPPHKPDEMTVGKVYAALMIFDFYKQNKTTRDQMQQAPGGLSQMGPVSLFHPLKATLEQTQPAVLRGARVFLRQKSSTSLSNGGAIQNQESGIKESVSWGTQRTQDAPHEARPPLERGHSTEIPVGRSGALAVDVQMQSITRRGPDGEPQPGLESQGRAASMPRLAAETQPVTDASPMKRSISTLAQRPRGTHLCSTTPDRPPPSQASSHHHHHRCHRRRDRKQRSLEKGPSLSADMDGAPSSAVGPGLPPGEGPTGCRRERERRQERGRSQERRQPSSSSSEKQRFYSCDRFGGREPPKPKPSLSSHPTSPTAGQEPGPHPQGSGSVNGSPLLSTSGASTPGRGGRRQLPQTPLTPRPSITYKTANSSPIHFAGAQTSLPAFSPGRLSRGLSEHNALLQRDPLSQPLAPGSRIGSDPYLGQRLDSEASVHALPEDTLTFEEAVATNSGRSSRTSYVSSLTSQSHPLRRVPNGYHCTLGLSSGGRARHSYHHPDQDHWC
T7 sequence (Q02410 whole entry): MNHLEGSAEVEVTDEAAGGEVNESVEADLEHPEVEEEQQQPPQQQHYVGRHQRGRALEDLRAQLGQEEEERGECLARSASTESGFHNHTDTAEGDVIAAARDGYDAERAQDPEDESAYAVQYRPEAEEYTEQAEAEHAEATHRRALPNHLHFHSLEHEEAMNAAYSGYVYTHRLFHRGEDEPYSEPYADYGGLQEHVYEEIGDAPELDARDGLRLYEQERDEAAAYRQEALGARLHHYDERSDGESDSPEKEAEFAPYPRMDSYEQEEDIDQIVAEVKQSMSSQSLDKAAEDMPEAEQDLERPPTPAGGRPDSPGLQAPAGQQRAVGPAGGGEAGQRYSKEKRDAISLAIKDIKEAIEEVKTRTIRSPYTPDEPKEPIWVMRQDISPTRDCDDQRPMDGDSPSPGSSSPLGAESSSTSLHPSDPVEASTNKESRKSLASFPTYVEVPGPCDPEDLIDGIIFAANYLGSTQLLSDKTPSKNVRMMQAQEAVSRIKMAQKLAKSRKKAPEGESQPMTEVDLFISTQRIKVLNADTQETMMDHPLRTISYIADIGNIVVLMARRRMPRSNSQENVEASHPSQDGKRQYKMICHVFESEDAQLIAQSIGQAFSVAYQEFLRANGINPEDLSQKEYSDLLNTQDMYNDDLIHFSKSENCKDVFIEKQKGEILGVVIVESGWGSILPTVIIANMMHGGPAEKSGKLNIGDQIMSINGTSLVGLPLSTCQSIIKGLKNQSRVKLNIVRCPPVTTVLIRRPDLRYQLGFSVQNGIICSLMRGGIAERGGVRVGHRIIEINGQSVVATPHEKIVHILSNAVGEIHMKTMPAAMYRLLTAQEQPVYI
T8 sequence (Q96RJ0 whole entry): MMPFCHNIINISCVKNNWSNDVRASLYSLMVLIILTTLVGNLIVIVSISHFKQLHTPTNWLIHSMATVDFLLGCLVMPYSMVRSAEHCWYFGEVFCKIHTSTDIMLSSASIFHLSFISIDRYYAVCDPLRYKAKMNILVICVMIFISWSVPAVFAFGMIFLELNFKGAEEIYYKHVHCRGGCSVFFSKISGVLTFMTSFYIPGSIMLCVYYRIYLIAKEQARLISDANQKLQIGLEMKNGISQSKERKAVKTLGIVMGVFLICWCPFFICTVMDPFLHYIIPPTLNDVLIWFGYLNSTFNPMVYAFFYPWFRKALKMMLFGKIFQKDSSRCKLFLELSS
T9 sequence (P63165 whole entry): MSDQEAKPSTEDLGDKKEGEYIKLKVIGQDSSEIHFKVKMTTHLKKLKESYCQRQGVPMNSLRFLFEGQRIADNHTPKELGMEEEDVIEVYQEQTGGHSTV
T2 sequence (Q5J463 whole entry): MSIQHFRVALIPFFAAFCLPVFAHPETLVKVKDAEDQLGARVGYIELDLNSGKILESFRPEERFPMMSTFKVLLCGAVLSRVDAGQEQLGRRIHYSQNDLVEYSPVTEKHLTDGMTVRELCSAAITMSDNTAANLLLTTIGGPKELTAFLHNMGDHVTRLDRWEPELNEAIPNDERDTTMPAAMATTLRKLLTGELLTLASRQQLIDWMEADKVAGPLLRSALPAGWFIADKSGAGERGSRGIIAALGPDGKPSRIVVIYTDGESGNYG
Sequence of Dual specificity protein phosphatase 3 (P51452 whole entry): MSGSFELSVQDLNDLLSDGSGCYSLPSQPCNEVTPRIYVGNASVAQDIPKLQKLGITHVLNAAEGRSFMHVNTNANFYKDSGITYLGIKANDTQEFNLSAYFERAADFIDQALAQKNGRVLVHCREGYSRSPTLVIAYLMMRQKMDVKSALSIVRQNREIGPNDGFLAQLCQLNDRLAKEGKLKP
Sequence of 26S proteasome non-ATPase regulatory subunit 14 (O00487 whole entry): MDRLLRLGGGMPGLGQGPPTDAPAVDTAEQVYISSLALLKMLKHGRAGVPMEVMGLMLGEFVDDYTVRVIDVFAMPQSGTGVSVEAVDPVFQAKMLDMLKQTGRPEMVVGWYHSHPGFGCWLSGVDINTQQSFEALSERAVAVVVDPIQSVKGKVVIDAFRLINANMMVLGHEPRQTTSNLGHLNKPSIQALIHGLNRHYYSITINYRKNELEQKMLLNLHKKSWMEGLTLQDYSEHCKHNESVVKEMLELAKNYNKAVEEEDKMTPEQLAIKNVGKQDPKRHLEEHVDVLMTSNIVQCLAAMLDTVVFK
Sequence of Induced myeloid leukemia cell differentiation protein Mcl-1 (Q07820 whole entry): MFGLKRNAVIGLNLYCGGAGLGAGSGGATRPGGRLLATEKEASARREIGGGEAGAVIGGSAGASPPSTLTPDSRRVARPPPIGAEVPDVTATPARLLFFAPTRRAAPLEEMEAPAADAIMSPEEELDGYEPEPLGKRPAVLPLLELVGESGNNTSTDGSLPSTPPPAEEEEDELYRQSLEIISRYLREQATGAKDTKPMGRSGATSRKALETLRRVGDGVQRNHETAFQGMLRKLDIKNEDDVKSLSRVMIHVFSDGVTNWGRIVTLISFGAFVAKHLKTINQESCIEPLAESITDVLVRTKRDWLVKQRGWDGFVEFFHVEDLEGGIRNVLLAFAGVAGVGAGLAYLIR

COc1cc2c(c(OC)c1OC)-c1ccc(OC)c(=O)cc1[C@@H](NC(C)=O)CC2 [COLCHICINE]
IC50 [1]: > 67.6 µM (inactive) | IC50 [2]: 0.0628 µM (active) | AC50 (Cytochrome P450 2D6): 0.794 µM (active) | AC50 (Paired box protein Pax-8): < 0.26 µM (active) | GI50 (P388/ADR): 1.36 µM (inactive) | GI50 (P388): 0.0625 µM (active) | IC50 [3]: 0.0017 µM (active) | IC50 (cells [4]): > 67.6 µM (inactive) | AC50 (Cytochrome P450 2C9): 3.16 µM (active) | IC50 [5]: > 80 µM (inactive) | GI50 (SN12K1): < 0.0625 µM (active)

Sc1nnc(-c2ccc3ccccc3n2)n1-c1ccc2c(c1)OCCO2
IC50 (Beta-lactamase [6]): > 59.6 µM (inactive) | IC50 (Beta-lactamase [7]): > 59.6 µM (inactive) | IC50 (Beta-lactamase [8]): > 59.6 µM (inactive)

O=C(O)CC/C(=N\Nc1ccc(S(=O)(=O)N2CCCC2)cc1[N+](=O)[O-])c1cccs1
IC50 [9]: 15.5 µM (active) | IC50 [10]: 14.5 µM (active) | IC50 [11]: 19 µM (active) | IC50 [12]: 34.5 µM (inactive) | IC50 [13]: 15.6 µM (active)

CCN1CCN(C(=O)/C=C/c2ccc(C)cc2)CC1
IC50 (Beta-galactosidase): > 80 µM (inactive)

Cn1cc(/C=C(\C(=O)O)C(C(=O)O)=C2CCCCC2)c2ccccc21
IC50 (Beta-lactamase [14]): > 59.6 µM (inactive) | IC50 (Beta-lactamase [15]): > 59.6 µM (inactive)

CCn1c(=O)c(=O)[nH]c2cc(C(=O)NC3CCCc4ccccc43)ccc21 (configuration not stated)
IC50 [16]: 29.1 µM (inactive) | IC50 [17]: 26.7 µM (inactive)

CSc1nc(SCCO)c2sc3nc(-c4ccco4)c4c(c3c2n1)CC(C)(C)OC4
IC50 [9]: 3.01 µM (active) | IC50 [18]: 14.3 µM (active) | IC50 (Ephrin type-A receptor 4): 6.73 µM (active) | IC50 [19]: 1.54 µM (active) | IC50 [20]: > 56.8 µM (not active) | EC50 [21]: 1.81 µM (active)

O=C(N[C@@H](Cc1cccnc1)C(=O)N1CCC[C@H]1C(=O)NCCc1ccccc1Cl)c1ccc(Cl)cc1Cl
IC50 (cells [22]): > 29.9 µM (inactive) | EC50 (cells [23]): > 29.9 µM (inactive) | EC50 [24]: 4.03 µM (active) | IC50 [25]: 2.94 µM (active)

NS(=O)(=O)c1ccc(NC(=O)c2cccc(N3C(=O)c4ccccc4C3=O)c2)cc1
IC50 [26]: > 100 µM (inactive) | IC50 [27]: > 66.6 µM (inactive) | IC50 [28]: 40.2 µM (active) | IC50 (Prothrombin): > 100 µM (inactive) | IC50 [29]: > 20 µM (inactive) | IC50 [30]: 14.4 µM (active) | IC50 (Albumin): > 94.1 µM (inactive) | IC50 [31]: 30.8 µM (inactive)
